Measured values as given in patent US20240189615A1, “METHOD AND SYSTEM FOR PRODUCING APOPTOTIC MONONUCLEAR CELLS” (MACO PHARMA, priority 2020, published 2024).

Tests used:
JURKAT cells [1] = test: Inhibition of cell proliferation (Vi-cell counting); type: cell-based, human
Description: The rate of inhibition of cell proliferation is determined by dividing the difference between the proliferation rate of the unirradiated control cells and the proliferation rate of the irradiated cells by the proliferation rate of the unirradiated control cells, the rate of cell proliferation being determined by dividing the total number of final cells by the total number of starting cells. The rate of inhibition of proliferation was determined 3 days after irradiation and after the cells had been cultured.
(§1) To monitor the parameters of interest (apoptosis and inhibition of JURKAT proliferation), the cells were cultured using cell counting. To do this, 5.10^6 treated cells and 5.10^6 untreated cells were seeded in 10 ml of culture medium.
The initial JURKAT population was 5.10^6 cells per culture flask. The number of cells per culture flask was then counted by Vi-cell.
To do this, the culture medium with the cells was centrifuged at 1500 rpm for 5 minutes and the pellet was resuspended in supplemented RPMI culture medium. Depending on the cell density, a 1/10 dilution in PBS could be performed.
The percentage inhibition of cell proliferation on day n (Dn) was determined by the following formula:
% PI(Dn)=100−% P(Dn) [Math. 2]
in which % P(Dn) is the cell proliferation rate at n days, determined by the following formula: […]

JURKAT cells [2] = test: Apoptosis test (annexin-V FITC / propidium iodide flow cytometry), delta-apoptosis; type: cell-based, human
Description: To obtain the desired quantity of JURKAT cells, they were cultured in an RPMI 1640 medium supplemented with foetal calf serum (10% v/v), 1% L-glutamine (Lonza) and 1% penicillin-streptomycin (Lonza). Cells were grown in culture flasks placed in an incubator at 37° C. and 5% CO2. The JURKAT doubling time was approximately 27 hours.
The cells were suspended in a solution of PBS (phosphate buffer saline) or in a 2% haematocrit solution comprising 1/14 of the anticoagulant ACD-A, a 50/50 v/v mixture of NaCl and plasma. The final volume was such that the thickness of the cell suspension in the container was around 3 mm.
In the case of UVA irradiation, the cell solution also contained 200 ng/ ml or 333° ng/ml of 8-MOP.
At the end of the irradiation step, the cell solutions with a haematocrit level of 2% are washed in order to recover as many JURKAT cells as possible for culture with low contamination by red blood cells. To do this, the components were separated by density gradient using a Ficoll solution (GE Healthcare).
After JURKAT isolation, the cells were washed three times to remove the Ficoll solution. The first two washes were performed in a PBS solution with 2 mM EDTA (Thermo Fisher), and the third was performed in a PBS solution. The cells were then re-suspended in supplemented RPMI medium and counted using Vi-cell and ABX in order to estimate the number of JURKAT that had been isolated and to assess the quantity of residual red blood cells.
as §1
Apoptosis was studied by flow cytometry, using double labelling of cells with annexin-V coupled to a fluorophore FITC and propidium iodide (PI).
Delta-apoptosis was determined by the following formula:
Δapoptosis=(% apoptosis of treated cells−% apoptosis of untreated cells) [Math. 1]

[3] = JURKAT cells 330.10^6 in 300 ml, 2% haematocrit plasma/saline, 333 ng/ml 8-MOP, bag, Macogenic G2 (Maco Pharma ECP system)

COc1c2occc2cc2ccc(=O)oc12 [8-MOP, 8-methoxypsoralen]
UVA dose from which acceptance criterion in terms of proliferation inhibition was achieved (JURKAT cells [1]; [3]): ≥ 2 J/cm^2 | UVA dose meeting the acceptance criterion in terms of inhibition of proliferation (JURKAT cells [1]; JURKAT cells in PBS, 200 ng/ml 8-MOP, Petri dish, BS02 irradiator, criterion inhibition >70% 3 days after irradiation): 0.13 J/cm^2 | UVA dose at which acceptance criterion for rate of proliferation inhibition was reached (JURKAT cells [1]; JURKAT cells in plasma/saline 50/50, 2% haematocrit, 333 ng/ml 8-MOP, Petri dish, BS02 irradiator, D+3): 3 J/cm^2 | UVA dose from which acceptance criterion in terms of delta-apoptosis was achieved (JURKAT cells [2]; [3]): ≥ 2 J/cm^2 | UVA dose meeting the acceptance criterion in terms of delta-apoptosis (JURKAT cells [2]; JURKAT cells in PBS, 200 ng/ml 8-MOP, Petri dish, BS02 irradiator, criterion delta-apoptosis 30-40% one day, 50-60% two days after irradiation): 0.13 J/cm^2 | rate of cell necrosis (JURKAT cells [2]; JURKAT cells in PBS, 200 ng/ml 8-MOP, all doses of UVA radiation tested (0.03-0.4 J/cm^2)): below 1% | equivalent UVA dose (sigmoidal model of delta-apoptosis), BS02 irradiator (JURKAT cells [2]; JURKAT cells in plasma, 333 ng/ml 8-MOP, BS02 irradiator in UVA): 4 J/cm^2 | equivalent UVA dose (sigmoidal model of delta-apoptosis), Macogenic G2 (JURKAT cells [2]; JURKAT cells in plasma, 333 ng/ml 8-MOP, delivered with Macogenic G2): 2.1 J/cm^2 | UVA dose at which acceptance criterion for delta-apoptosis was reached (JURKAT cells [2]; JURKAT cells in plasma/saline 50/50, 2% haematocrit, 333 ng/ml 8-MOP, Petri dish, BS02 irradiator): 4 J/cm^2
